In assay [1] the test system is MV4-11 cells. The experiment in a line: Cell viability assay (resazurin), MV4-11. The format is cell-based. The conditions noted are these: Homo sapiens, MV4-11, 72 h; read-out: IC50 anti-proliferative activity MV4-11. The method, then: (§1) The AML cell lines MV4-11, THP-1, KASUMI-1 and HL-60 were purchased from Procell Life Science & Technology Co., Ltd. (Wuhan, China). THP-1 and KASUMI-1 were cultured in RPMI-1640 complete medium containing 10% fetal bovine serum and 1% penicillin and streptomycin. MV4-11 was cultured in IMDM complete medium containing 10% fetal bovine serum and 1% penicillin and streptomycin. HL-60 was cultured in IMDM complete medium containing 20% fetal bovine serum and 1% penicillin and streptomycin. All cell lines were cultured in an incubator with humidity set at 95%, temperature at 37 °C and 5% CO2.
(§2) MV4-11, THP-1, KASUMI-1 and HL-60 cells were plated in 96-well transparent plates (10,000 to 15,000 cells/100 μL) and after incubation overnight, cells were treated with gradient-diluted inhibitors with several concentrations. After the cells were incubated with inhibitors for 72 h, 1 mg/mL of Resazurin (Sigma-Aldrich, Saint Louis, MO, USA) was added (working concentration was 0.1 mg/mL). After incubation at 37 °C for about 3 h, the fluorescence intensity of […] was measured at 560 nm/590 nm (excitation/emission) with a Spectra Max i3 Microplate Reader, and the cell viability was determined. The IC50 curve was drawn using GraphPad Prism 9.5 software.
A general note: Alamar Blue is a resazurin reagent that responds to reducing activity.

In assay [2] the target is T1, HDAC3 (Homo sapiens, UniProt O15379).
T1 construct: purchased BPS Bioscience
T1 sequence (O15379 whole entry): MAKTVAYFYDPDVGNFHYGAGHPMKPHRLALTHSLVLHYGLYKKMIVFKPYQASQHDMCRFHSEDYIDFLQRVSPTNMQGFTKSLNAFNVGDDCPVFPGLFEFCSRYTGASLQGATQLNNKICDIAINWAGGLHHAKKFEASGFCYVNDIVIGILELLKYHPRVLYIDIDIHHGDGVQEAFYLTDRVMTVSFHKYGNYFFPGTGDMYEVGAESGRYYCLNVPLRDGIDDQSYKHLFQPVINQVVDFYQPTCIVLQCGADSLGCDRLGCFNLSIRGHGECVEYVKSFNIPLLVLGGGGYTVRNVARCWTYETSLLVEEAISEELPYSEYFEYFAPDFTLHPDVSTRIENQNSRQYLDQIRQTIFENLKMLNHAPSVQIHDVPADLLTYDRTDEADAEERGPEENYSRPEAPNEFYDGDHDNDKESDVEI
T1 sequence (Q9Y618 395-489 partner limits assumed): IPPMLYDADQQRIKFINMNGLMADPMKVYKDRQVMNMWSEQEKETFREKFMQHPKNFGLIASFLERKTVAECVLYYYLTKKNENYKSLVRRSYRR
The experiment in a line: In vitro HDAC inhibition fluorescence assay, HDAC3. The format is biochemical. The conditions noted are these: for inhibition at 0.01 µM: 10 nM; for inhibition at 0.01 µM / inhibition at 0.1 µM: read-out: Inhibition Rate of HDAC3 (%); for inhibition at 0.1 µM: 100 nM. The method, then: (§3) All of the HDAC enzymes were purchased from BPS Bioscience. In vitro HDAC inhibition assays were conducted as previously described. In brief, 20 μL of recombinant HDAC enzyme solution (HDAC1-9, 11) was mixed with various concentrations of the tested compound (20 μL). […] After incubation at 37 °C for 2 h, the catalysis was stopped by the addition of 10 μL of developer containing 30 mg/mL trypsin and 6 μM trichostatin A (TSA). Then, 30 min later, the fluorescence intensity was measured using a microplate reader at excitation and emission wavelengths of 360 and 460 nm, respectively. The inhibition ratios were calculated from the fluorescence intensity readings of tested wells relative to those of control wells, and the IC50 curves and values were determined by GraphPad Prism 6.0, using the “log(inhibitor) vs. normalized response-variable slope” function.

Assay [3] has as its system THP-1 cells. The experiment in a line: Cell viability assay (resazurin), THP-1. It counts as cell-based. The conditions noted are these: Homo sapiens, THP-1, 72 h; read-out: IC50 anti-proliferative activity THP-1. The method, then: as §1, §2
The target of assay [4] is T2, HDAC2 (Homo sapiens, UniProt Q92769).
T2 construct: purchased BPS Bioscience
T2 sequence (Q92769 whole entry): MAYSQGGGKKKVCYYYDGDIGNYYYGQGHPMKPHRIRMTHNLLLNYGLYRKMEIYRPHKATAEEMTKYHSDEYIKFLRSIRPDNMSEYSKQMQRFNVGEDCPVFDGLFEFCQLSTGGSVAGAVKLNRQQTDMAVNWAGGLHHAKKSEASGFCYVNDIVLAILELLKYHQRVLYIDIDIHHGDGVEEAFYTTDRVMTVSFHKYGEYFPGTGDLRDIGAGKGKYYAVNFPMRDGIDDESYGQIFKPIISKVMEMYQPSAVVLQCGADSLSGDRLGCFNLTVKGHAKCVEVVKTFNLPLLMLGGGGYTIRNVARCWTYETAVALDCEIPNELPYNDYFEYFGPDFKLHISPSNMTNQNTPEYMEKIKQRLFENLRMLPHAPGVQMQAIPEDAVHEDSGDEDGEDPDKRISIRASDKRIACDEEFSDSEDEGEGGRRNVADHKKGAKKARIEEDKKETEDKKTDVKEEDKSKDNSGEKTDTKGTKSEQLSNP
Put plainly: In vitro HDAC inhibition fluorescence assay, HDAC2. It counts as biochemical. As to the method:
as §3

For assay [5], the system named is Kasumi-1 cells. Put plainly: Cell viability assay (resazurin), Kasumi-1. It counts as cell-based. The conditions noted are these: Homo sapiens, Kasumi 1, 72 h; read-out: IC50 anti-proliferative activity Kasumi-1. As to the method: as §1, §2
Assay [6] relates to HL-60 cells. The experiment in a line: Cell viability assay (resazurin), HL-60. It counts as cell-based. The conditions noted are these: Homo sapiens, HL-60, 72 h; read-out: IC50 anti-proliferative activity HL-60. As to the method:
as §1, §2

Assay [7] deals with T3, HDAC1 (Homo sapiens, UniProt Q13547).
T3 construct: purchased BPS Bioscience
T3 sequence (Q13547 whole entry): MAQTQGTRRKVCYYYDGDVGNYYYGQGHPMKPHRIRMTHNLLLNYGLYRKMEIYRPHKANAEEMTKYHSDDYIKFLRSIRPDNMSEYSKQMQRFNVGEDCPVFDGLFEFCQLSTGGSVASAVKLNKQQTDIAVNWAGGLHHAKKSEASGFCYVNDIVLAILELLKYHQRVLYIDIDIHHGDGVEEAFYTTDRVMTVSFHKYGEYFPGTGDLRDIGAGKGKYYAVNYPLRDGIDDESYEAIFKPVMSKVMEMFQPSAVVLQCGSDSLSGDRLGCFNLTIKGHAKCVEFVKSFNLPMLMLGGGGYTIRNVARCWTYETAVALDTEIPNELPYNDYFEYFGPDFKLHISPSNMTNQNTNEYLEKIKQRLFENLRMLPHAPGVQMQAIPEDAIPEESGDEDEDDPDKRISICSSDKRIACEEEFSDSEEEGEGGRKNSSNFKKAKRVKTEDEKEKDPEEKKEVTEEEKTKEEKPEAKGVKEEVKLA
The experiment in a line: In vitro HDAC inhibition fluorescence assay, HDAC1. The conditions noted are these: for inhibition at 0.01 µM: 10 nM; for inhibition at 0.01 µM / inhibition at 0.1 µM: read-out: Inhibition Rate of HDAC1 (%); for inhibition at 0.1 µM: 100 nM. It counts as biochemical. As to the method:
as §3

Assay [8] relates to MV4-11, THP-1, HL60 and Kasumi-1 cells. Put plainly: Cell viability assay, four AML cell lines together. It counts as cell-based. The conditions noted are these: synthesized SCA. The method, then: as §1, §2
The subject of assay [9] is MV4-11 cells. The experiment in a line: Western blot analysis. It counts as cell-based. The conditions noted are these: Venetoclax monotherapy, 24 h. The method, then: MV4-11 cells were inoculated into 12-well plates at a density of 800,000 cells/mL. After incubation overnight, each well was treated with different concentrations of 25c and Venetoclax alone or in combination. After treatment for 24 h, the cells were collected and washed with pre-cooled PBS. A protease inhibitor (cocktail) and RIPA buffer were added for cell lysis. The decomposed solution was centrifuged at 12,000 rpm for 15 min at 4 °C, and the extracted protein was located in the supernatant. The proteins in each sample were denatured by heating at 100 °C in loading buffer (5×) for 10 min. The same amount of proteins in each sample was separated by SDS-PAGE and then electrotransferred to a PVDF membrane (Merck Millipore, Billerica, MA, USA) and enclosed in 5% skim milk powder for 1 h. The primary antibody diluted with an immune response booster solution was incubated in a shaking bed at 4 °C overnight, and the horseradish (HRP)-conjugated second antibody diluted with 5% skim milk powder was incubated at room temperature for 1 h on the second day. After the PVDF membrane was washed with TBST, the target protein bands could be detected with chemiluminescent reagents (Millipore, Billerica, MA, USA) and visualized in the Tanon 5200 + fluorescence imager.
The primary antibodies Caspase 3 (including Cleaved Caspase-3) (sc-56053), Mcl-1 (94296S), Bcl-xL (ab98143), γ-H2AX (9718S), AcHH3 (Lys27) (8173S), AcHH4 (sc-377520), HH3 (ab1791), Ac-tubulin (sc-23950), HDAC6 (sc-28386), α-tubulin (sc-23948), GAPDH (sc-59540) and β-actin (8H10D10) were purchased from Abcam, Cell Signaling Technology and Santa Cruz Biotechnology.
Background: Immunoblotting shows a protein as a band on a membrane.

In assay [10] the test system is MV4-11 cells. Put plainly: Microdilution checkerboard assay, 25c combined with Venetoclax. The format is cell-based. The conditions noted are these: Homo sapiens, 72 h, read-out: Inhibition Rate (%). As to the method:
The inhibition effect of 25c combined with Venetoclax on the proliferation of MV4-11 cells was determined by microdilution checkerboard assay. CompuSyn software was used to calculate the combined action index of the two compounds, and the cell inhibition rates of the two compounds acting alone and the combined action were input to calculate the combination index (CI) to evaluate the synergistic effect of the drugs. A CI value less than 1 indicates a synergistic effect, a CI value equal to 1 indicates an additive effect and a CI value greater than 1 indicates an antagonistic effect.
A general note: In broth dilution the organism is exposed to a series of concentrations in liquid medium.

We go through 8 molecules from article PMC11204923, “Marine Cytotoxin Santacruzamate A Derivatives as Potent HDAC1-3 Inhibitors and Their Synergistic Anti-Leukemia Effects with Venetoclax” (Marine Drugs, 2024).

Structures are written as SMILES.

One may read the IC50 as the point on the concentration scale where inhibition reaches its midpoint. A word on the inhibition: it is the share of the control response that was lost under treatment. Consider `CCCNNC(=O)C=Cc1ccc(CNCc2ccccc2)cc1` [Compound 25b, 3-(4-((Benzylamino)methyl)phenyl)-N′-propylacrylohydrazide], for which the concentration for half-maximal inhibition (IC50) in assay [1] worked out at 362 ± 76.8 nM; in assay [2] it was 2.7 ± 0.6 nM; in [3], 516 ± 145 nM; in assay [4], 111 ± 16.9 nM; in assay [5] it was 448 ± 122 nM; in assay [6], 736 ± 24.8 nM. This molecule yielded a half-inhibitory concentration (IC50) in assay [7] of 27 ± 2 nM. Moreover, the inhibition at 0.01 µM in assay [2] came to 94.8 ± 0.1%; in [7] it was 21.8 ± 1.6%. For the same molecule, the inhibition at 0.1 µM was determined as 97.9 ± 0.2% in assay [2] and 77 ± 0.3% in [7].

Turning to `CCCNNC(=O)C=Cc1ccc(CNCc2ccccn2)cc1` [Compound 25d, N′-Propyl-3-(4-(((pyridin-2-ylmethyl)amino)methyl)phenyl)acrylohydrazide], in [2], the IC50 came out at 13 ± 6.4 nM, the inhibition at 0.01 µM was determined as 62.5 ± 0.4% and the inhibition at 0.1 µM stood at 86.9 ± 0.1%. For the same molecule, half-maximal inhibition in assay [4] (IC50) required 314 ± 36.7 nM. For the same molecule, in assay [7], the half-maximal inhibitory concentration (IC50) came to 101 ± 27 nM, the inhibition at 0.01 µM was found to be 9.3 ± 2.3% and the inhibition at 0.1 µM came out at 61.7 ± 1.1%.

`CCCNNC(=O)C=Cc1ccc(CNC2Cc3ccccc3C2)cc1` [Compound 25e, 3-(4-(((2,3-Dihydro-1H-inden-2-yl)amino)methyl)phenyl)-N′-propylacrylohydrazide]: the IC50 is 353 ± 119 nM in [1]; 3.1 ± 1.5 nM in assay [2]; 451 ± 73.8 nM in assay [3]; 161 ± 29 nM in assay [4]; 380 ± 147 nM in assay [5]; 502 ± 189 nM in [6]. Half-maximal inhibition in assay [7] (IC50) required 36.5 ± 5 nM. Besides, the inhibition at 0.01 µM turned out to be 94.8 ± 0.5% in assay [2] and 10.9 ± 1.2% in [7]. Moreover, the inhibition at 0.1 µM in [2] was determined as 95.6 ± 0.2%; in assay [7] it was 78.7 ± 0.7%.

With `CCCNNC(=O)C=Cc1ccc(CNCc2cccc3ccccc23)cc1` [Compound 25g, 3-(4-(((Naphthalen-1-ylmethyl)amino)methyl)phenyl)-N′-propylacrylohydrazide], the IC50 in [1] worked out at 582 ± 240 nM; in assay [3], 1020 ± 498 nM; in assay [4], 46.3 ± 4.1 nM; in assay [5] it was 1010 ± 643 nM; in assay [6], 650 ± 247 nM; in assay [7], 16 ± 1 nM. Also, the values for the inhibition at 0.01 µM in [2] and in assay [7] were 45.9% and 33.9%, respectively. Further, the inhibition at 0.1 µM in [2] worked out at 71.1 ± 1.6%; in [7], 76.5 ± 5%.

In the case of `CCCNNC(=O)C=Cc1ccc(CN2C(=O)c3ccccc3C2=O)cc1` [Compound 30, 3-(4-((1,3-Dioxoisoindolin-2-yl)methyl)phenyl)-N′-propylacrylohydrazide], in [2], it took 27.8 ± 1.8 nM to reach half-maximal inhibition (IC50), the inhibition at 0.01 µM amounted to 53.9 ± 0.4% and the inhibition at 0.1 µM is 85.1 ± 0.1%. In assay [4], this molecule showed an IC50 of 651.9 ± 3.4 nM. Besides, in assay [7], the IC50 worked out at 136 ± 20.6 nM, the inhibition at 0.01 µM turned out to be 5.1 ± 1.3% and the inhibition at 0.1 µM turned out to be 28.4 ± 1.1%.

Regarding `Nc1ccccc1NC(=O)c1ccc(CNC(=O)OCc2cccnc2)cc1` [Entinostat, reference compound], the 50% inhibitory concentration (IC50) was 651 ± 37.4 nM in assay [1], 1520 ± 218 nM in [3], 480 ± 161 nM in [5] and 1100 ± 51.5 nM in [6]. In addition, the inhibition at 0.01 µM in [7] stood at 3.8 ± 1.1%. Also, the inhibition at 0.1 µM in assay [7] was found to be 37.6 ± 2.6%.

For the molecule `CCOC(=O)NCCCC(=O)NCCc1ccccc1` [SCA, Santacruzamate A], the IC50 in assay [1], in assay [3], in assay [5] and in assay [6] was more than 10000 nM in each case. In [8], the “anti-proliferative inhibitory activity in four AML cell lines” value is “no inhibitory activity was detected”. Moreover, the “enzyme inhibitory activity, HDAC3” value in [2] (screening at 100 nM and 10 nM) was “no activity”. Moreover, the “enzyme inhibitory activity, HDAC1” value in [7] (screening at 100 nM and 10 nM) is listed as “no activity”.

On to `CC1(C)CCC(CN2CCN(c3ccc(C(=O)NS(=O)(=O)c4ccc(NCC5CCOCC5)c([N+](=O)[O-])c4)c(Oc4cnc5[nH]ccc5c4)c3)CC2)=C(c2ccc(Cl)cc2)C1` [Venetoclax], for which the “level of cleaved-caspase3” value in [9] was “slightly higher”. Also, the inhibition at 0.04 µM in [10] (Venetoclax 0.04 μM alone) is 36.5%. For the same molecule, in assay [10] (Venetoclax 0.08 μM alone), the inhibition at 0.08 µM came to 62.3%. For the same molecule, in assay [10] (Venetoclax 0.15 μM alone), the inhibition at 0.15 µM came to 78.5%.
